Data: patent US20120309699A1, “COMPOUNDS HAVING ANTI-INFLAMMATORY ACTIVITY” (Consejo Superior de Investigaciones Cientificas (CSIC), priority 2009, published 2012)

Columns and labels:
interleukin-8 (IL-8) = test: Production of interleukin-8 in HT-29 cells inoculated with Listeria monocytogenes Scott A; assay type: cell-based, human; settings: HT-29, Listeria monocytogenes Scott A; for Modulation of IL-8 production at increased dose: 50 and 100 μM; for Production of IL-8: 6 hours
Procedure: The human colon carcinoma cell HT-29 model was used to evaluate the ability of the compounds derived from resveratrol to modulate the production of interleukin-8 as a response to pathogenic food bacteria. […] Cell viability was observed under the microscope and the supernatants from the wells were recovered. After centrifuging (10,000 rpm/10 min) and filtering the supernatants (0.22), IL-8 was determined using the ELISA method (Human Elisa IL-8 diaclone). The concentrations of the various derivatives tested were detected in the digestive tract of experimental animals and therefore the test fell within the range of physiological achievable concentrations.

E. coli = test: Microbiota counts in feces: E. coli; assay type: in vivo, mice; settings: after administration of DSS; HED 10 mg
Procedure: (§1) A model for intestinal inflammation based on the administration of DSS (sodium dextran sulfate) to C57BL/6 mice was used. At the present time there is no consensus about which overall is the best model for experimental colitis. The DSS model has been widely used because it has clinical, morphological and analytical characteristics which up to a point are similar to those specific to patients with ulcerative colitis or Crohn's disease.
(§2) The in vivo inflammation test was carried out using duplicates separated by a number of months. In each test each group of animals (n=8) was fed a standard diet supplemented with 2.3 mg/day/kg (animal weight) of each of the compounds, depending upon the group. This dose assumes the ingestion of 0.05 mg/day (50 μg/day) per mouse (having a mean weight of 22 grams). This dose extrapolated to a human being is equivalent to 10 mg in an adult weighing 70 kg; using the formula HED (human equivalent dose)=animal dose in mg/kg×(animal weight kg/human weight in kg)^0.33. […]
(§3) • Monitoring of weight, food and drink ingestion. The mice in all groups were individually monitored, with weight, quantity of food ingested and water drunk each day being monitored throughout the experimental test. • Blood and water in feces. The water content of feces, as an indication of diarrhea, was evaluated using the difference in weight following evaporation in a stove. Blood was measured using reactive strips based on the guaiacol-peroxidase reaction (HealthCare Diagnosis Inc.). […] The reaction was measured using a scale from 0 (negative result) to 4 (most intense color change). • Length of colon. After sacrifice the colon was obtained from each mouse, extended and measured. […] This was evaluated by spectrophotometry at 460 nm using O-dianisidine reagent and hydrogen peroxide. The change in absorbance at 460 nm was monitored over 10 minutes in a V-630 spectrophotometer (Jasco, Tokyo, Japan). […] Levels of PGE2 were measured in colonic mucosa homogenates using an immunoenzyme method using a Cayman Chem. kit (USA). • “Antibody array”. […] The signal was detected by chemoluminescence. […]

enterobacteria = test: Microbiota counts in feces: enterobacteria; assay type: in vivo, mice; settings: after administration of DSS; HED 10 mg
Procedure: as §1, §2, §3

[1] = tested on: Listeria monocytogenes Scott A; test: Adhesion of L. monocytogenes to Caco-2 cells; assay type: cell-based, human; settings: Caco-2, 25 μM/well; in comparison with resveratrol and the other derivatives
Procedure: (§4) We used two cell models for colon cancer to evaluate the anti-adhesion capacity of compounds derived from resveratrol against pathogenic bacteria in food: Caco-2 (a model frequently used to measure the adhesion of microorganisms) and HT-29 (a model frequently used to measure immune response to infections by enteropathogens). Caco-2 and HT-29 cells were grown in EMEM and DMEM respectively, for which 24 well plates were used at 37° C., 5% CO2, 95% air until a single layer of confluent epithelium formed (cell concentration per well 2×10^5 and 6×10^5 respectively). Pathogenic bacteria (E. coli O157, Salmonella and Listeria monocytogenes Scott A) were placed in contact with the various compounds derived from resveratrol for 1 hour and subsequently the bacteria together with the different compounds in a concentration of 25 μM/well were inoculated on the cell cultures, incubating the plates for 2 hours at 37° C., 5% CO2, 95% air. The plates were then washed 3 times with 1 ml of sterile PBS and 1 ml of distilled water with 20% of glycerol was added, and they were frozen at −70° C. to lyse the epithelial cells. […] Concentrations of the various derivatives tested were detected in the digestive tracts of experimental animals and therefore the test lay within the range of physiologically achievable concentrations.

Salmonella = test: Adhesion of Salmonella to Caco-2 cells; assay type: cell-based, human; settings: Caco-2, 25 μM/well; in comparison with resveratrol and the other derivatives
Procedure: as §4

fibrinogen = test: Systemic inflammation marker fibrinogen (DSS model); assay type: in vivo, mice; settings: vs DSS group; HED 10 mg
Procedure: as §1
The in vivo inflammation test was carried out using duplicates separated by a number of months. In each test each group of animals (n=8) was fed a standard diet supplemented with 2.3 mg/day/kg (animal weight) of each of the compounds, depending upon the group. This dose assumes the ingestion of 0.05 mg/day (50 μg/day) per mouse (having a mean weight of 22 grams). This dose extrapolated to a human being is equivalent to 10 mg in an adult weighing 70 kg; using the formula HED (human equivalent dose)=animal dose in mg/kg×(animal weight kg/human weight in kg)^0.33.
In each test the mice were fed for 3 weeks during which 1% DSS was included in their drink. The DSS was maintained for 8 days (and the same food as from the start). Then the DSS was withdrawn and the animals were allowed to recover for another 6 days (again with the same food).
• Monitoring of weight, food and drink ingestion. The mice in all groups were individually monitored, with weight, quantity of food ingested and water drunk each day being monitored throughout the experimental test. • Blood and water in feces. The water content of feces, as an indication of diarrhea, was evaluated using the difference in weight following evaporation in a stove. Blood was measured using reactive strips based on the guaiacol-peroxidase reaction (HealthCare Diagnosis Inc.). […] The reaction was measured using a scale from 0 (negative result) to 4 (most intense color change). • Length of colon. After sacrifice the colon was obtained from each mouse, extended and measured. […] This was evaluated by spectrophotometry at 460 nm using O-dianisidine reagent and hydrogen peroxide. The change in absorbance at 460 nm was monitored over 10 minutes in a V-630 spectrophotometer (Jasco, Tokyo, Japan). MPO activity was expressed as mU of activity/mg of fresh tissue, comparing the increase in absorbance with a standard straight line obtained using leukocyte myeloperoxidase (Sigma). • Prostaglandins in colonic mucosa. Levels of PGE2 were measured in colonic mucosa homogenates using an immunoenzyme method using a Cayman Chem. kit (USA). • “Antibody array”. […] The signal was detected by chemoluminescence. […] Signal intensities (densitometry) were analyzed using ScanAlyze software. […] The changes in cytokine levels were expressed as mean±SD in arbitrary density units. […]

## CCCCCCCC(=O)OCC1OC(Oc2cc(O)cc(/C=C/c3ccc(O)cc3)c2)C(O)C(O)C1O [OCT, trans-resveratrol-3-O-(6′-O-octanoyl)-β-D-glucopyranoside]
interleukin-8 (IL-8)
  Modulation of IL-8 production at increased dose: more obvious
  Production of IL-8: reduced production significantly
E. coli
  E. coli count in feces: clear reduction
enterobacteria
  Enterobacteria count in feces: clear reduction
[1]
  Anti-adhesion efficacy in respect of L. monocytogenes: greater anti-adhesion efficacy
Salmonella
  Anti-adhesion efficacy in respect of Salmonella: greater anti-adhesion efficacy
fibrinogen
  Blood fibrinogen levels: most notable differences

## CCCC(=O)OCC1OC(Oc2cc(O)cc(/C=C/c3ccc(O)cc3)c2)C(O)C(O)C1O [BUT, trans-resveratrol-3-O-(6′-O-butanoyl)-β-D-glucopyranoside]
interleukin-8 (IL-8)
  Modulation of IL-8 production at increased dose: more obvious
  Production of IL-8: reduced production significantly
E. coli
  E. coli count in feces: clear reduction
enterobacteria
  Enterobacteria count in feces: clear reduction
[1]
  Anti-adhesion efficacy in respect of L. monocytogenes: greater anti-adhesion efficacy
Salmonella
  Anti-adhesion efficacy in respect of Salmonella: greater anti-adhesion efficacy
fibrinogen
  Blood fibrinogen levels: most notable differences
